Data from US11091522B2, “Peptidomimetic macrocycles and uses thereof” (priority 2018, dated 2021).
pIC50, pKi: −log10 of the molar value. Like-named read-outs stand apart in the source and are kept apart here. Bridge positions count the residues as written; N and C are the ends. Square brackets hold non-standard residues; d marks the D form. Peptide text beside a SMILES is read from it. R8 = C=CCCCCCC[C@@](C)(N)C(=O)O; S5 = C=CCCC[C@](C)(N)C(=O)O; Nle = CCCC[C@H](N)C(=O)O; Aib = CC(C)(N)C(=O)O

How the values were obtained:
[1] = Circular dichroism (CD) analysis of alpha-helicity; assay type: physicochemical; conditions: difference 50% TFE minus benign
Procedure: Peptide solutions were analyzed by CD spectroscopy using a spectropolarimeter. A temperature controller was used to maintain temperature control of the optical cell. Results are expressed as mean molar ellipticity [θ] (deg cm^2 dmol^−1) as calculated from the equation [θ]=θobs·MRW/10*l*c where θobs is the observed ellipticity in millidegrees, MRW is the mean residue weight of the peptide (peptide molecular weight/number of residues), 1 is the optical path length of the cell in centimeters, and c is the peptide concentration in mg/ml. Peptide concentrations were determined by amino acid analysis. Stock solutions of peptides were prepared in benign CD buffer (20 mM phosphoric acid, pH 2). The stock solutions were used to prepare peptide solutions of 0.05 mg/ml in either benign CD buffer or CD buffer with 50% trifluoroethanol (TFE) for analyses in a 10 mm path length cell. Variable wavelength measurements of peptide solutions were scanned at 4° C. from 195 to 250 nm, in 0.2 nm increments, and a scan rate 50 nm per minute. The average of six scans is reported.

MDM2 = MDM2 (Homo sapiens, UniProt Q00987); assay: Competitive fluorescence polarization assay for MDM2; assay type: binding
Sequence of MDM2 (Q00987 1-125): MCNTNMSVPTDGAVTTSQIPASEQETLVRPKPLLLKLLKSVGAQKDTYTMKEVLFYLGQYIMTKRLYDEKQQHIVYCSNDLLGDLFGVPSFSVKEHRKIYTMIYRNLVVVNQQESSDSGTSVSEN
Procedure: 1 mM of FAM-labeled linear peptide (in 100% DMSO) was diluted to 100 μM with DMSO (dilution 1:10). Then, diluted solution was further diluted from 100 μM to 10 μM with water (dilution 1:10), and diluted again with FP buffer from 10 μM to 40 nM (dilution 1:250). […] The diluted FAM-labeled peptides were kept in the dark until use.
Unlabeled peptide dose plates were prepared with FP buffer starting with 1 μM (final) of the peptide. […] 10 mM of the solution (in 100% DMSO) with DMSO to 5 mM (dilution 1:2); dilution from 5 mM to 500 μM with H2O (dilution 1:10); and dilution with FP buffer from 500 μM to 20 μM (dilution 1:25). […] 10 μl of 10 nM (4×) of FAM-labeled peptide was added into each well, and the wells were incubated for 3 h before being read.

MDMX = target: T1, MDMX (Homo sapiens, UniProt O15151); assay: Competitive fluorescence polarization assay for MDMX; assay type: binding
T1 sequence (O15151 1-125): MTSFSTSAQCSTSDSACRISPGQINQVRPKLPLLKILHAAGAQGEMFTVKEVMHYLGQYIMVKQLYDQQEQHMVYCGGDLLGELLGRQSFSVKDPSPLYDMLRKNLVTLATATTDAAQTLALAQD
Procedure: MDMX (40 kD) was diluted into FP buffer (high-salt buffer 200 mM NaCl, 5 mM CHAPS, pH 7.5) to make a 300 nM (2×) working stock solution. 20 μl of the 300 nM (2×) of protein stock solution was added into each well of 96-well black microplate. 1 mM (in 100% DMSO) of a FAM-labeled linear peptide was diluted with DMSO to a concentration of 100 μM (dilution 1:10). The solution was diluted from 100 M to 10 M with water (dilution 1:10), and diluted further with FP buffer from 10 μM to 40 nM (dilution 1:250). […] The diluted FAM-labeled peptide was kept in the dark until use. An unlabeled peptide dose plate was prepared with FP buffer starting with a concentration of 5 μM (final) of a peptide. […] 10 mM (in 100% DMSO) of the solution was diluted with DMSO to prepare a 5 mM (dilution 1:2) solution. The solution was diluted from 5 mM to 500 μM with H2O (dilution 1:10), and diluted further with FP buffer from 500 μM to 20 μM (dilution 1:25). […] 10 μl of the serially diluted unlabeled peptides were added to each well, which was filled with 20 μl of the 300 nM protein solution. 10 μl of the 10 nM (4×) FAM-labeled peptide solution was added into each well, and the wells were incubated for 3 h before reading.

[2] = competitive fluorescence polarization, MDM2, read-out: Ki (MDM2)
[3] = competitive fluorescence polarization, MDMX, read-out: Ki (MDMX)

## CCCC[C@H](NC(=O)[C@H](C)NC(=O)[C@H](C)NC(=O)[C@]1(C)CCC/C=C/CCCCCC[C@@](C)(NC(=O)[C@H](Cc2ccccc2)NC(=O)[C@@H](NC(=O)[C@H](CC(C)C)NC(C)=O)[C@@H](C)O)C(=O)N[C@@H](C)C(=O)N[C@@H](Cc2ccc(O)cc2)C(=O)N[C@@H](Cc2c[nH]c3ccccc23)C(=O)N[C@@H](C)C(=O)N[C@@H](CCC(N)=O)C(=O)N[C@@H](CC(C)C)C(=O)N1)C(=O)N[C@@H](C)C(N)=O [compound 69]
[1]
  Molar Ellipticity TFE-Molar Ellipticity Benign: −21407.1 deg cm^2 dmol^−1

## CC(=O)N[C@@H](CC(C)C)C(=O)N[C@H](C(=O)N[C@@H](Cc1ccccc1)C(=O)N[C@]1(C)CCCCCCC=CCCC[C@@](C)(C(=O)N[C@@H](Cc2c[nH]cn2)C(=O)N[C@@H](Cc2c[nH]cn2)C(=O)N[C@@H](CC(C)C)C(=O)N[C@H](C)C(N)=O)NC(=O)[C@H](CC(C)C)NC(=O)[C@H](CCC(N)=O)NC(=O)[C@H](C)NC(=O)[C@H](Cc2c[nH]c3ccccc23)NC(=O)[C@H](Cc2ccc(O)cc2)NC(=O)[C@H](C)NC1=O)[C@@H](C)O [compound 43] (Ac-LTF[R8]AYWAQL[S5]HHL[dA]-NH2; staple 4-11)
[1]
  Molar Ellipticity TFE-Molar Ellipticity Benign: 2912.9 deg cm^2 dmol^−1

## CC(=O)N[C@@H](CC(C)C)C(=O)N[C@H](C(=O)N[C@@H](Cc1ccc(F)c(F)c1)C(=O)N[C@]1(C)CCCCCC/C=C/CCC[C@@](C)(C(=O)N[C@@H](C)C(=O)N[C@@H](C)C(=O)N[C@@H](C)C(=O)N[C@@H](C)C(=O)N[C@@H](C)C(=O)N[C@H](C)C(N)=O)NC(=O)[C@H](CC(C)C)NC(=O)[C@H](CCC(N)=O)NC(=O)[C@H](C)NC(=O)[C@H](Cc2c[nH]c3ccccc23)NC(=O)[C@H](Cc2ccc(O)cc2)NC(=O)[C@H](CCC(=O)O)NC1=O)[C@@H](C)O [compound 558]
MDM2
  pKi: 7.00 to 8.00
MDMX
  pKi: 7.00 to 8.00

## CC(=O)N[C@@H](CC(C)C)C(=O)N[C@H](C(=O)N[C@@H](Cc1ccccc1)C(=O)N[C@]1(C)CCCCCC/C=C/CCC[C@@](C)(C(=O)N[C@@H](C)C(=O)N[C@@H](C)C(=O)N[C@@H](C)C(=O)NC(C)(C)C(=O)N[C@@H](C)C(=O)N[C@H](C)C(N)=O)NC(=O)[C@H](CC(C)C)NC(=O)[C@H](CCC(N)=O)NC(=O)[C@H](C)NC(=O)[C@H](Cc2c[nH]c3ccccc23)NC(=O)[C@H](Cc2ccc(O)cc2)NC(=O)[C@H](CCC(=O)O)NC1=O)[C@@H](C)O [compound 564] (Ac-LTF[R8]EYWAQL[S5]AAA[Aib]A[dA]-NH2; staple (E) 4-11)
MDM2; [2]
  pKi: > 8.00
MDMX; [3]
  pKi: 7.00 to 8.00

## CC(=O)N[C@@H](CC(C)C)C(=O)N[C@H](C(=O)N[C@@H](Cc1ccccc1)C(=O)N[C@]1(C)CCCCCCC=CCCC[C@@](C)(C(=O)N[C@@H](C)C(=O)N[C@@H](C)C(=O)N[C@@H](C)C(=O)N[C@H](C)C(N)=O)NC(=O)[C@H](CC(C)C)NC(=O)[C@H](CCC(N)=O)NC(=O)[C@H](C)NC(=O)[C@H](Cc2c[nH]c3ccccc23)NC(=O)[C@H](Cc2ccc(O)cc2)NC(=O)[C@H](C)NC1=O)[C@@H](C)O (single isomer, unassigned) [compound 230]
[1]
  Molar Ellipticity TFE-Molar Ellipticity Benign: −17760.8 deg cm^2 dmol^−1

## CC(=O)N[C@@H](CC(C)C)C(=O)N[C@H](C(=O)N[C@@H](Cc1ccccc1)C(=O)N[C@]1(C)CCCCCC/C=C/CCC[C@@](C)(C(=O)N[C@@H](C)C(=O)N[C@@H](C)C(=O)N[C@@H](C)C(=O)N[C@@H](C)C(=O)N[C@@H](C)C(=O)N(C)CC(N)=O)NC(=O)[C@H](CC(C)C)NC(=O)[C@H](CCC(N)=O)NC(=O)[C@H](C)NC(=O)[C@H](Cc2c[nH]c3ccccc23)NC(=O)[C@H](Cc2ccc(O)cc2)NC(=O)[C@H](CCC(=O)O)NC1=O)[C@@H](C)O [compound 578]
MDM2; [2]
  pKi: > 8.00
MDMX; [3]
  pKi: 7.00 to 8.00

## CC(=O)N[C@@H](CC(C)C)C(=O)N[C@H](C(=O)N[C@@H](Cc1ccccc1)C(=O)N[C@]1(C)CCCCCC/C=C/CCC[C@@](C)(C(=O)N[C@@H](C)C(=O)N[C@@H](C)C(=O)N[C@@H](C)C(=O)N[C@@H](C)C(=O)N[C@@H](C)C(=O)N[C@H](C)C(N)=O)NC(=O)[C@H](CC(C)C)NC(=O)[C@H](CCC(N)=O)NC(=O)[C@H](C)NC(=O)[C@H](Cc2c[nH]c3cc(Cl)ccc23)NC(=O)[C@H](Cc2ccc(O)cc2)NC(=O)[C@H](CCC(=O)O)NC1=O)[C@@H](C)O [compound 555]
MDM2
  pKi: > 8.00
MDMX
  pKi: 7.00 to 8.00

## CC(=O)N[C@@H](CC(C)C)C(=O)N[C@H](C(=O)N[C@@H](Cc1ccccc1)C(=O)N[C@]1(C)CCCCCC/C=C/CCC[C@@](C)(C(=O)N[C@@H](C)C(=O)N[C@@H](C)C(=O)N[C@@H](C)C(=O)N[C@@H](C)C(=O)N[C@@H](C)C(=O)NC(C)(C)C(N)=O)NC(=O)[C@H](CC(C)C)NC(=O)[C@H](CCC(N)=O)NC(=O)[C@H](C)NC(=O)[C@H](Cc2c[nH]c3ccccc23)NC(=O)[C@H](Cc2ccc(O)cc2)NC(=O)[C@H](CCC(=O)O)NC1=O)[C@@H](C)O [compound 567]
MDM2; [2]
  pKi: > 8.00
MDMX; [3]
  pKi: 7.00 to 8.00

## CC[C@H](C)[C@H](NC(=O)[C@H](C)NC(=O)[C@H](C)NC(=O)[C@]1(C)CCC/C=C/CCCCCC[C@@](C)(NC(=O)[C@H](Cc2ccccc2)NC(=O)[C@@H](NC(=O)[C@H](CC(C)C)NC(C)=O)[C@@H](C)O)C(=O)N[C@@H](C)C(=O)N[C@@H](Cc2ccc(O)cc2)C(=O)N[C@@H](Cc2c[nH]c3ccccc23)C(=O)N[C@@H](C)C(=O)N[C@@H](CCC(N)=O)C(=O)N[C@@H](CC(C)C)C(=O)N1)C(=O)N[C@H](C)C(N)=O [compound 71]
[1]
  Molar Ellipticity TFE-Molar Ellipticity Benign: −17835.9 deg cm^2 dmol^−1

## CC(=O)N[C@@H](CC(C)C)C(=O)N[C@H](C(=O)N[C@@H](Cc1ccccc1)C(=O)N[C@]1(C)CCCCCCC=CCCC[C@@](C)(C(=O)N[C@@H](CO)C(=O)N[C@@H](C)C(=O)N[C@@H](C)C(N)=O)NC(=O)[C@H](CC(C)C)NC(=O)[C@H](CCC(N)=O)NC(=O)[C@H](C)NC(=O)[C@H](Cc2c[nH]c3ccccc23)NC(=O)[C@H](Cc2ccc(O)cc2)NC(=O)[C@H](C)NC1=O)[C@@H](C)O [compound 11] (Ac-LTF[R8]AYWAQL[S5]SAA-NH2; staple 4-11)
[1]
  Molar Ellipticity TFE-Molar Ellipticity Benign: 16225.2 deg cm^2 dmol^−1

## CCCC[C@H](NC(=O)[C@H](CCC(N)=O)NC(=O)[C@H](CCC(N)=O)NC(=O)[C@]1(C)CCCC=CCCCCCC[C@@](C)(NC(=O)[C@H](Cc2ccccc2)NC(C)=O)C(=O)N[C@@H](C)C(=O)N[C@@H](Cc2ccc(O)cc2)C(=O)N[C@@H](Cc2c[nH]c3ccccc23)C(=O)N[C@@H]([C@@H](C)O)C(=O)N[C@@H](C)C(=O)N[C@@H](CC(C)C)C(=O)N1)C(=O)N[C@@H](C(N)=O)C(C)C [compound 41] (Ac-F[R8]AYWTAL[S5]QQ[Nle][dV]-NH2; staple 2-9)
[1]
  Molar Ellipticity TFE-Molar Ellipticity Benign: 20410.4 deg cm^2 dmol^−1

## CC(C)C[C@H](NC(=O)CN(C)C)C(=O)N[C@H](C(=O)N[C@@H](Cc1ccccc1)C(=O)N[C@]1(C)CCCCCC/C=C/CCC[C@@](C)(C(=O)N[C@@H](C)C(=O)N[C@@H](C)C(=O)N[C@@H](C)C(=O)N[C@@H](C)C(=O)N[C@@H](C)C(=O)N[C@H](C)C(N)=O)NC(=O)[C@H](CC(C)C)NC(=O)[C@H](CCC(N)=O)NC(=O)[C@H](C)NC(=O)[C@H](Cc2c[nH]c3ccccc23)NC(=O)[C@H](Cc2ccc(O)cc2)NC(=O)[C@H](C)NC1=O)[C@@H](C)O [compound 437]
MDM2
  pIC50: 7.00 to 8.00
  pKi: > 8.00
MDMX
  pIC50: 7.00 to 8.00
  pKi: 7.00 to 8.00

## CC(=O)N[C@@H](CC(C)C)C(=O)N[C@H](C(=O)N[C@@H](Cc1ccccc1)C(=O)N[C@]1(C)CCCCCCC=CCCC[C@@](C)(C(=O)N[C@@H](CO)C(=O)N[C@@H](C)C(=O)N[C@@H](Cc2ccccc2)C(N)=O)NC(=O)[C@H](CC(C)C)NC(=O)[C@H](CCC(N)=O)NC(=O)[C@H](C)NC(=O)[C@H](Cc2c[nH]c3ccccc23)NC(=O)[C@H](Cc2ccc(O)cc2)NC(=O)[C@H](C)NC1=O)[C@@H](C)O [compound 7] (Ac-LTF[R8]AYWAQL[S5]SAF-NH2; staple 4-11)
[1]
  Molar Ellipticity TFE-Molar Ellipticity Benign: −20045.4 deg cm^2 dmol^−1

## CC(=O)N[C@@H](CC(C)C)C(=O)N[C@H](C(=O)N[C@@H](Cc1ccccc1)C(=O)N[C@]1(C)CCCCCCC=CCCC[C@@](C)(C(=O)N[C@@H](C)C(=O)N[C@@H](C)C(=O)N[C@@H](C)C(=O)N[C@@H](C)C(=O)N[C@H](C)C(N)=O)NC(=O)[C@H](CC(C)C)NC(=O)[C@H](CCC(N)=O)NC(=O)[C@H](C)NC(=O)[C@H](Cc2c[nH]c3ccccc23)NC(=O)[C@H](Cc2ccc(O)cc2)NC(=O)[C@H](C)NC1=O)[C@@H](C)O [compound 233]
[1]
  Molar Ellipticity TFE-Molar Ellipticity Benign: −18554.7 deg cm^2 dmol^−1
